# Test results: patent US20090041666A1, “Ophthalmic formulations of Amyloid-beta contrast agent and methods of use thereof” (priority 2007, published 2009)
# Where two headings read alike, the source gives them in different places.
# Legend:
# [1] = Solubility in water and in ophthalmic carriers; format: physicochemical
# From the text: Specifically, a mixture of approximately 85% petrolatum and 15% mineral oil is a suitable carrier. […] The petrolatum in this ophthalmic formulation can act as a carrier for a combination of dissolved and suspended Methoxy-X04, by altering the aqueous portions of the eye to accept the compound more readily by adding lipophilic material to the solution of the eye's environment and by altering the interactions of the eye with the compound by shielding it from the aqueous environment.
# Hydroxypropyl methylcellulose can act in part as a carrier of microparticles in suspension for a mixture of dissolved and suspended Methoxy-X04. This effect occurs by altering the aqueous portions of the eye to enable them to accept the hydrophobic compounds more readily, by adding lipophilic material to the eye's environment and/or by altering the interactions of the compound with the eye by shielding the hydrophobic compound from the aqueous environment.
# X34 (Formula II) is a ligand molecule that is derived from Congo Red by replacing the naphthalene sulfonic acids with salicylic acids and the azo linkage with an ethenyl link. […] At room temperature, X34 is a yellow powder, which fluoresces upon exposure to UV light. The logPoct for X34 is 0.42. […] Preferably, ophthalmic formulations containing X34 (or other hydrophilic compounds of Formula I) have LogD values of between 1 and 3.
# [2] = Particle size after the grinding process; format: physicochemical; settings: micronized by the grinding process
# Method: For example, Polysorbate 80 is weighed into a polypropylene bottle, and an initial amount of sterile water for injection, USP, is weighed into the bottle. Next, Methoxy-X04 is weighed and added to the bottle. The current batch weight is determined, and the final amount of sterile water for injection to adjust the formulation to a final batch weight is added. Then, the YTZ grinding media is added to the bottle, and the bottle is placed on a roller mill for a minimum of 12 hours at a setting of 50%.
# After the milling process, a polishing filter and Masterflex tubing are connected to the bottom of a Millipore housing assembly, while a high-pressure hose is attached to the top of the Millipore housing. Using a nitrogen pressure gauge, the solution is pushed thorough the housing and the polish filter. For example, the pressure used is between 3 psi and 5 psi. This grinding process yields micronized Methoxy-X04 having a mean particle size of 1.157 μm with 100% of particles smaller than 10 μm and greater than 75% of particles smaller than 5 μm. Thus, those skilled in the art will recognize that this exemplary milling process produces Methoxy-X04 particles that are suitable for either topical or parenteral formulation, without requiring the use of solvents, such as dimethyl sulfoxide, that are incompatible with use in drug formulations.
# [3] = target: T1, Aβ(1-40) (Homo sapiens, UniProt P05067); settings: * = compound only partially soluble at this concentration, cited from earlier work
# T1 construct: Aβ(1-40)
# [4] = system: Aβ plaques; settings: in vivo animal models and ex vivo human tissue (CR: Aβ aggregations); cited from earlier work
# [5] = injected into the tail; ex vivo 2-photon fluorescent microscopy; cited from earlier work
# [6] = cited from earlier work
# [7] = Octanol-water partition coefficient; format: physicochemical; settings: pH 7.4
# From the text: Those skilled in the art will recognize that the hydrophobicity and hydrophilicity of a substance can be measured using the octanol-water partition coefficient (“Poct” or “Kow”), for compounds whose solubility is not altered by the pH and ionic characteristic of the solute, or LogD value, for compounds whose solubility is altered by the pH and ionic characteristic of the solute. LogD is the logarithm of the distribution coefficient, which is the ratio of the sum of the concentrations of all species of a compound in octanol to the sum of the concentrations of all species of the compound in water.
# In these contexts, hydrophobicity is related to factors such as absorption, bioavailabity, hydrophobic drug-receptor interactions, metabolism, and/or toxicity. As used herein, the logPoct is synonymous to logKow, and both measurements are used interchangeably herein. Likewise, logPoct is a functionally equivalent measure to LogD; both values reflect the degree of solubility of a given compound.
# [8] = pH 7.4; cited from earlier work
# [9] = given as Inact, tested at 10 μm
# T1 sequence (P05067 672-711 limits assumed): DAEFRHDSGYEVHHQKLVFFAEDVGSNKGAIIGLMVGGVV
smiles,measurement,setting,value
COc1cc(/C=C/c2ccc(O)cc2)ccc1/C=C/c1ccc(O)cc1 [2-CH3O-X:E:B04],solubility in water,[1],insoluble
same,state in carrier at 10 mg/gm,"[1]; 10 mg/gm of carrier, petrolatum and mineral oil",remains primarily in suspension
same,state in carrier at 0.1%,"[1]; 0.1% (1 mg per gm carrier), aqueous formulation with hydroxypropyl methylcellulose",remains in solution
same,state in carrier at 0.1%,"[1]; 0.1% (1 mg per gm of carrier), about 85% petrolatum and 15% mineral oil",remains in solution
same,mean particle size,[2],1.157 μm
same,particles smaller than 5 μm,[2],greater than 75%
same,particles smaller than 10 μm,[2],100%
same,Ki,[3]; [3H]CG binding to Aβ(1-40),27 nM
same,binding to Aβ plaques / aggregations,[4],selectively binds to Aβ plaques
same,detection in the lens,[5],could be detected in the supranuclear region of the lens
same,Oral rat LD50,[6],~15 g/kg
COc1ccc(/C=C/c2ccc(/C=C/c3ccc(OC)cc3)c(OC)c2)cc1 [2′-CH3O-X:E:B04 bis(4-methoxy)],Ki,[3]; [9],> 10000 nM
Oc1ccc(/C=C/c2ccc(/C=C/c3ccc(O)cc3)c(O)c2)cc1 [2′-HO-X:E:B04],Ki,[3]; [3H]CG binding to Aβ(1-40),9 nM
COc1ccc(/C=C/c2ccc(/C=C/c3ccc(OC)cc3)c(O)c2)cc1 [2′-HO-X:E:B04bis(4-methoxy)],Ki,[3]; [9],> 10000 nM
"O=C(O)c1cc(/N=N/c2ccc(-c3ccc(/N=N/c4ccc(O)c(C(=O)O)c4)cc3)cc2)ccc1O [CG, Chrysamine G]",Poct of CG relative to CR,[7],~100 fold
same,logPoct,[8],1.8
same,octanol-water partition coefficient (Poct),[8],60
"Nc1c(/N=N/c2ccc(-c3ccc(/N=N/c4cc(S(=O)(=O)O)c5ccccc5c4N)cc3)cc2)cc(S(=O)(=O)O)c2ccccc12 [CR, Congo Red]",binding to Aβ plaques / aggregations,[4],selectively binds to Aβ aggregations with high affinity
same,logPoct,[8],0.18
same,octanol-water partition coefficient (Poct),[8],0.7
COc1ccc(/C=C/c2ccc(/C=C/c3ccc(OC)cc3)cc2)cc1 [X:E:B04 bis(4-methoxy)],Ki,[3]; [9],> 10000 nM
Oc1ccc(/C=C/c2ccc(/C=C/c3ccc(O)cc3)cc2)cc1 [X:E:B04],Ki,[3]; [3H]CG binding to Aβ(1-40),3100 nM
COC(=O)c1cccc(/C=C/c2ccc(/C=C/c3cccc(C(=O)OC)c3)cc2)c1 [X:E:B30 dimethylester],Ki,[3]; [9],> 10000 nM
O=C(O)c1cccc(/C=C/c2ccc(/C=C/c3cccc(C(=O)O)c3)cc2)c1 [X:E:B30],Ki,[3]; [3H]CG binding to Aβ(1-40),135 nM
O=C(O)c1cc(/C=C/c2ccc(/C=C/c3ccc(O)c(C(=O)O)c3)cc2)ccc1O [X:E:B34 (X-34)],solubility in water,[1],moderately soluble
same,state in carrier at 0.1%,[1]; 0.1% of X34 (1 mg active per gm of carrier),appears to remain in solution
same,Ki,[3]; [3H]CG binding to Aβ(1-40),18 nM
same,binding to Aβ plaques / aggregations,[4],selectively binds to β-amyloid plaques
same,Oral rat LD50,[6],~15 g/kg
COC(=O)c1cc(/C=C/c2ccc(/C=C/c3ccc(OC)c(C(=O)OC)c3)cc2)ccc1OC [X:E:B34 bis(4-methoxy) dimethyl ester],Ki,[3]; [9],> 10000 nM
COc1ccc(/C=C/c2ccc(/C=C/c3ccc(OC)c(C(=O)O)c3)cc2)cc1C(=O)O [X:E:B34 bis(4-methoxy)],Ki,[3]; [3H]CG binding to Aβ(1-40),47 nM
COC(=O)c1cc(/C=C/c2ccc(/C=C/c3ccc(O)c(C(=O)OC)c3)cc2)ccc1O [X:E:B34 dimethylester],Ki,[3]; [3H]CG binding to Aβ(1-40),119 nM
